# Measured values published in patent US20210045385A1, “PYRIDAZINONE-SUBSTITUTED KETOXIMES AS HERBICIDES” (FMC Corporation, priority 2018, published 2021).
# How the values were obtained:
# Assay type in all cases: in vivo
# [1] = test system: barnyardgrass (Echinochloa crus-galli); assay: Test D flooded paddy test, visual plant response rating; conditions: 250 g ai/ha, scale 0 to 100 (0 no effect, 100 complete control), 13 to 15 d
# Outline: (§1)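 Greenhouse paddy assay scored on a 0–100 visual scale after 13 to 15 d, where 100 means complete control and a dash marks no result; dosing was into 3 cm floodwater over 2-leaf plants.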
# [2] = test system: duck salad (Heteranthera limosa); assay: as above; conditions: 250 g ai/ha, scale 0 to 100 (0 no effect, 100 complete control), 13 to 15 d
# Outline: as §1
# rice (Oryza sativa) = assay: as above; conditions: 250 g ai/ha, scale 0 to 100 (0 no effect, 100 complete control), 13 to 15 d
# Outline: as §1
# [3] = test system: sedge umbrella (small-flower umbrella sedge, Cyperus difformis); assay: as above; conditions: 250 g ai/ha, scale 0 to 100 (0 no effect, 100 complete control), 13 to 15 d
# Outline: as §1
# [4] = test system: barnyardgrass (Echinochloa crus-galli); assay: Test C preemergence, visual plant response rating; conditions: Test C, 0 is no effect, 100 is complete control
# Outline: (§2)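 Seeds sown in a loam–sand blend got a directed preemergence soil spray; postemergence plants (2–10 cm, one- to two-leaf stage) were sprayed with compound in a non-phytotoxic solvent plus surfactant. Injury was scored visually against untreated controls after about 10 d in a greenhouse on a 0–100 scale (100 = complete control).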
# kochia (Bassia scoparia) [5] = assay: Test C preemergence, visual plant response rating; conditions: Test C, 0 is no effect, 100 is complete control
# Outline: as §2
# [6] = test system: pigweed (Amaranthus retroflexus); assay: Test C preemergence, visual plant response rating; conditions: Test C, 0 is no effect, 100 is complete control
# Outline: as §2
# [7] = test system: foxtail, giant (giant foxtail, Setaria faberi); assay: Test C preemergence, visual plant response rating; conditions: Test C, 0 is no effect, 100 is complete control
# Outline: as §2
# [8] = test system: ragweed (common ragweed, Ambrosia artemisiifolia); assay: Test C preemergence, visual plant response rating; conditions: Test C, 0 is no effect, 100 is complete control
# Outline: as §2
# [9] = test system: Italian ryegrass (Lolium mutiflorum); assay: Test C preemergence, visual plant response rating; conditions: Test C, 0 is no effect, 100 is complete control
# Outline: as §2
# corn (Zea mays) = assay: Test C postemergence, visual plant response rating
# Outline: as §2
# [10] = test system: barnyardgrass (Echinochloa crus-galli); assay: Test C postemergence, visual plant response rating
# Outline: as §2
# [11] = test system: galium (catchweed bedstraw, Galium aparine); assay: Test C postemergence, visual plant response rating
# Outline: as §2
# [12] = test system: wheat (Triticum aestivum); assay: Test C postemergence, visual plant response rating
# Outline: as §2
# kochia (Bassia scoparia) [13] = assay: Test C postemergence, visual plant response rating
# Outline: as §2
# [14] = test system: pigweed (Amaranthus retroflexus); assay: Test C postemergence, visual plant response rating
# Outline: as §2
# [15] = test system: foxtail, giant (giant foxtail, Setaria faberi); assay: Test C postemergence, visual plant response rating
# Outline: as §2
# [16] = test system: ragweed (common ragweed, Ambrosia artemisiifolia); assay: Test C postemergence, visual plant response rating
# Outline: as §2
# [17] = test system: blackgrass (Alopecurus myosuroides); assay: Test C postemergence, visual plant response rating
# Outline: as §2
# [18] = test system: Italian ryegrass (Lolium mutiflorum); assay: Test C postemergence, visual plant response rating
# Outline: as §2
# [19] = Test C, postemergence, 125 g ai/ha
Structure (SMILES),"Plant response rating, Barnyardgrass (Flood) [1]","Plant response rating, Ducksalad (Flood) [2]","Plant response rating, Rice (Flood) (rice (Oryza sativa))","Plant response rating, Sedge, Umbrella (Flood) [3]",Barnyardgrass plant response rating (0 to 100 scale) ([4]; 31 g ai/ha),Barnyardgrass plant response rating (0 to 100 scale) ([4]; 125 g ai/ha),Kochia plant response rating (0 to 100 scale) (kochia (Bassia scoparia) [5]; 31 g ai/ha),Kochia plant response rating (0 to 100 scale) (kochia (Bassia scoparia) [5]; 125 g ai/ha),Pigweed plant response rating (0 to 100 scale) ([6]; 31 g ai/ha),Pigweed plant response rating (0 to 100 scale) ([6]; 125 g ai/ha),"Foxtail, Giant plant response rating (0 to 100 scale) ([7]; 31 g ai/ha)","Foxtail, Giant plant response rating (0 to 100 scale) ([7]; 125 g ai/ha)",Ragweed plant response rating (0 to 100 scale) ([8]; 31 g ai/ha),Ragweed plant response rating (0 to 100 scale) ([8]; 125 g ai/ha),"Ryegrass, Italian plant response rating (0 to 100 scale) ([9]; 31 g ai/ha)","Ryegrass, Italian plant response rating (0 to 100 scale) ([9]; 125 g ai/ha)","Corn plant response rating (0 to 100 scale) (corn (Zea mays); Postemergence, 31 g ai/ha)",Corn plant response rating (0 to 100 scale) (corn (Zea mays); [19]),"Barnyardgrass plant response rating (0 to 100 scale) ([10]; Postemergence, 31 g ai/ha)","Barnyardgrass plant response rating (0 to 100 scale) [10, 19]",also measured
CO/N=C(/c1c(O)c(C)nn(C)c1=O)c1cccc2cc(Cl)ccc12 [Compound 301],0,0,0,0,0,40,0,0,0,20,20,80,0,0,0,30,0,20,20,40,"Galium plant response rating (0 to 100 scale) ([11]; Postemergence, 31 g ai/ha): 70; Galium plant response rating (0 to 100 scale) [11, 19]: 90; Wheat plant response rating (0 to 100 scale) ([12]; Postemergence, 31 g ai/ha): 0; Wheat plant response rating (0 to 100 scale) [12, 19]: 0; Kochia plant response rating (0 to 100 scale) (kochia (Bassia scoparia) [13]; Postemergence, 31 g ai/ha): 0; Kochia plant response rating (0 to 100 scale) (kochia (Bassia scoparia) [13]; [19]): 30; Pigweed plant response rating (0 to 100 scale) ([14]; Postemergence, 31 g ai/ha): 50; Pigweed plant response rating (0 to 100 scale) [14, 19]: 70; Foxtail, Giant plant response rating (0 to 100 scale) ([15]; Postemergence, 31 g ai/ha): 40; Foxtail, Giant plant response rating (0 to 100 scale) [15, 19]: 70; Ragweed plant response rating (0 to 100 scale) ([16]; Postemergence, 31 g ai/ha): 10; Ragweed plant response rating (0 to 100 scale) [16, 19]: 30; Blackgrass plant response rating (0 to 100 scale) ([17]; Postemergence, 31 g ai/ha): 0; Blackgrass plant response rating (0 to 100 scale) [17, 19]: 60; Ryegrass, Italian plant response rating (0 to 100 scale) ([18]; Postemergence, 31 g ai/ha): 0; Ryegrass, Italian plant response rating (0 to 100 scale) [18, 19]: 10"
CC(C)O/N=C(/c1c(O)cnn(C)c1=O)c1ccc(F)c2ccccc12 [Compound 302],0,0,0,0,0,0,0,0,10,40,0,10,0,20,0,0,0,0,0,0,"Galium plant response rating (0 to 100 scale) ([11]; Postemergence, 31 g ai/ha): 20; Galium plant response rating (0 to 100 scale) [11, 19]: 60; Wheat plant response rating (0 to 100 scale) ([12]; Postemergence, 31 g ai/ha): 0; Wheat plant response rating (0 to 100 scale) [12, 19]: 0; Kochia plant response rating (0 to 100 scale) (kochia (Bassia scoparia) [13]; Postemergence, 31 g ai/ha): 0; Kochia plant response rating (0 to 100 scale) (kochia (Bassia scoparia) [13]; [19]): 20; Pigweed plant response rating (0 to 100 scale) ([14]; Postemergence, 31 g ai/ha): 30; Pigweed plant response rating (0 to 100 scale) [14, 19]: 60; Foxtail, Giant plant response rating (0 to 100 scale) ([15]; Postemergence, 31 g ai/ha): 10; Foxtail, Giant plant response rating (0 to 100 scale) [15, 19]: 30; Ragweed plant response rating (0 to 100 scale) ([16]; Postemergence, 31 g ai/ha): 0; Ragweed plant response rating (0 to 100 scale) [16, 19]: 20; Blackgrass plant response rating (0 to 100 scale) ([17]; Postemergence, 31 g ai/ha): 0; Blackgrass plant response rating (0 to 100 scale) [17, 19]: 0; Ryegrass, Italian plant response rating (0 to 100 scale) ([18]; Postemergence, 31 g ai/ha): 0; Ryegrass, Italian plant response rating (0 to 100 scale) [18, 19]: 30"
CO/N=C(\c1c(O)cnn(C)c1=O)c1ccc(F)c2ccccc12 [Compound 303],0,0,0,0,0,0,0,10,10,30,0,10,0,20,0,20,0,0,0,10,"Galium plant response rating (0 to 100 scale) ([11]; Postemergence, 31 g ai/ha): 30; Galium plant response rating (0 to 100 scale) [11, 19]: 70; Wheat plant response rating (0 to 100 scale) ([12]; Postemergence, 31 g ai/ha): 0; Wheat plant response rating (0 to 100 scale) [12, 19]: 0; Kochia plant response rating (0 to 100 scale) (kochia (Bassia scoparia) [13]; Postemergence, 31 g ai/ha): 40; Kochia plant response rating (0 to 100 scale) (kochia (Bassia scoparia) [13]; [19]): 50; Pigweed plant response rating (0 to 100 scale) ([14]; Postemergence, 31 g ai/ha): 40; Pigweed plant response rating (0 to 100 scale) [14, 19]: 60; Foxtail, Giant plant response rating (0 to 100 scale) ([15]; Postemergence, 31 g ai/ha): 0; Foxtail, Giant plant response rating (0 to 100 scale) [15, 19]: 20; Ragweed plant response rating (0 to 100 scale) ([16]; Postemergence, 31 g ai/ha): 10; Ragweed plant response rating (0 to 100 scale) [16, 19]: 20; Blackgrass plant response rating (0 to 100 scale) ([17]; Postemergence, 31 g ai/ha): 0; Blackgrass plant response rating (0 to 100 scale) [17, 19]: 0; Ryegrass, Italian plant response rating (0 to 100 scale) ([18]; Postemergence, 31 g ai/ha): 20; Ryegrass, Italian plant response rating (0 to 100 scale) [18, 19]: 40"
CO/N=C(/c1c(O)cnn(C)c1=O)c1ccc(F)c2ccccc12 [Compound 304],0,0,0,0,0,0,0,0,10,20,0,10,0,40,0,20,10,20,0,0,"Galium plant response rating (0 to 100 scale) ([11]; Postemergence, 31 g ai/ha): 10; Galium plant response rating (0 to 100 scale) [11, 19]: 80; Wheat plant response rating (0 to 100 scale) ([12]; Postemergence, 31 g ai/ha): 0; Wheat plant response rating (0 to 100 scale) [12, 19]: 0; Kochia plant response rating (0 to 100 scale) (kochia (Bassia scoparia) [13]; Postemergence, 31 g ai/ha): 30; Kochia plant response rating (0 to 100 scale) (kochia (Bassia scoparia) [13]; [19]): 50; Pigweed plant response rating (0 to 100 scale) ([14]; Postemergence, 31 g ai/ha): 50; Pigweed plant response rating (0 to 100 scale) [14, 19]: 80; Foxtail, Giant plant response rating (0 to 100 scale) ([15]; Postemergence, 31 g ai/ha): 0; Foxtail, Giant plant response rating (0 to 100 scale) [15, 19]: 20; Ragweed plant response rating (0 to 100 scale) ([16]; Postemergence, 31 g ai/ha): 0; Ragweed plant response rating (0 to 100 scale) [16, 19]: 10; Blackgrass plant response rating (0 to 100 scale) ([17]; Postemergence, 31 g ai/ha): 0; Blackgrass plant response rating (0 to 100 scale) [17, 19]: 0; Ryegrass, Italian plant response rating (0 to 100 scale) ([18]; Postemergence, 31 g ai/ha): 20; Ryegrass, Italian plant response rating (0 to 100 scale) [18, 19]: 60"
